Test results from patent US20260022142A1, “MACROCYCLIC IMMUNOMODULATORS” (Bristol-Myers Squibb Company, priority 2022, published 2026).
pIC50: −log10 of the molar value. Bridge positions count the residues as written; N and C are the ends. Square brackets hold non-standard residues; d marks the D form. Peptide text beside a SMILES is read from it. * marks the point of attachment. ξ: configuration not given here. Phe(4-CH2CH2COOH) = N[C@@H](Cc1ccc(CCC(=O)O)cc1)C(=O)O; Phe(4-COOH) = N[C@@H](Cc1ccc(C(=O)O)cc1)C(=O)O; Bip = N[C@@H](Cc1ccc(-c2ccccc2)cc1)C(=O)O; Phe(3-Me) = Cc1cccc(C[C@H](N)C(=O)O)c1; hArg = N=C(N)NCCCC[C@H](N)C(=O)O; Cha = N[C@@H](CC1CCCCC1)C(=O)O; Cit = NC(=O)NCCC[C@H](N)C(=O)O; Thr(3ξ) = CC(O)[C@H](N)C(=O)O; 12Ado = NCCCCCCCCCCCC(=O)O; Carboxymethyl = O=C(O)C*; Orn = NCCC[C@H](N)C(=O)O; Aun = NCCCCCCCCCCC(=O)O; Dab = NCC[C@H](N)C(=O)O; ξDab = NCCC(N)C(=O)O

Target: T1, PD-1/PD-L1 interaction (PE-labeled human PD-L1-Ig binding to Jurkat cell line over-expressing human PD-1) (Homo sapiens, UniProt Q15116)
T1 construct: expressed in transfected cells; host or cells: Jurkat
T1 sequence (Q15116 25-288): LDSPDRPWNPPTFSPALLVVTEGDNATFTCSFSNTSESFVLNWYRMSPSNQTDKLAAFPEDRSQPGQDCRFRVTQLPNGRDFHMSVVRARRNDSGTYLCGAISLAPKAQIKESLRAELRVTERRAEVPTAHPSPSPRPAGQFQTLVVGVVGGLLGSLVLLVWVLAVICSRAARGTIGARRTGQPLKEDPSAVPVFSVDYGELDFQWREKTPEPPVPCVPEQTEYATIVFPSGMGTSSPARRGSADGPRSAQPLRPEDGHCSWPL
Assay: Jurkat-PD-1 Cell Binding High-Content Screening Assay (CBA)
Assay type: cell-based
Settings: Jurkat cell line over-expressing human PD-1; PE-labeled PD-L1-Ig 20 nM final; read-out: Jurkat hPD1-PDL1 IC50
In short: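 Jurkat cells over-expressing human PD-1 (8×10^3 per well, DMEM/10% FCS) preincubated with compound 2 h at 37° C, then PE-labeled human PD-L1-Ig (20 nM final) added for 1 h. Cells fixed with paraformaldehyde, Hoechst-stained, and bound fluorescence quantified by high-content imaging.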

SMILES	pIC50
Cc1cccc(C[C@@H]2NC(=O)[C@H](CC(=O)O)NC(=O)[C@H](Cc3ccc(OCC(=O)O)cc3)NC(=O)[C@H](C(C)O)NC(=O)CSC[C@@H](C(=O)N[C@H](CC(N)=O)C(=O)NCCCCCCCCCCC(=O)O)NC(=O)[C@H](C(C)O)NC(=O)[C@H](C(C)C)NC(=O)[C@H](CC3CCCCC3)NC(=O)[C@H](CCN)NC(=O)[C@@H](CC(C)C)NC(=O)[C@H](CCCN)NC(=O)[C@H](Cc3ccc(C(=O)O)cc3)NC(=O)[C@H](Cc3ccc(-c4ccccc4)cc3)NC(=O)[C@H](Cc3ccc(C(=O)O)cc3)NC2=O)c1 (stereo partly drawn) [Compound 3500] ({CH2CO}-[Thr(3ξ)]Y(Carboxymethyl)D[Phe(3-Me)][Phe(4-COOH)][Bip][Phe(4-COOH)][Orn][dL][Dab][Cha]V[Thr(3ξ)]C[dN][Aun]-OH; thioether N-14)	8.28
Cc1cccc(C[C@@H]2NC(=O)[C@H](CC(=O)O)NC(=O)[C@H](Cc3ccc(OCC(=O)O)cc3)NC(=O)[C@H](CCCNC(=N)N)NC(=O)CSC[C@@H](C(=O)NC(CCN)C(=O)NCCCCCCCCCCCC(=O)O)NC(=O)[C@H](C(C)O)NC(=O)[C@H](C(C)C)NC(=O)[C@H](CC3CCCCC3)NC(=O)[C@H](Cc3c[nH]cn3)NC(=O)[C@@H](CC(C)C)NC(=O)[C@H](CCCN)NC(=O)[C@H](CCCNC(N)=O)NC(=O)[C@H](Cc3ccc(-c4ccccc4)cc3)NC(=O)[C@H](C(C)C)NC2=O)c1 (stereo partly drawn) [Compound 3501] ({CH2CO}-RY(Carboxymethyl)D[Phe(3-Me)]V[Bip][Cit][Orn][dL]H[Cha]V[Thr(3ξ)]C[ξDab][12Ado]-OH; thioether N-14)	6.99
Cc1cccc(C[C@@H]2NC(=O)[C@H](CC(=O)O)NC(=O)[C@H](Cc3ccc(OCC(=O)O)cc3)NC(=O)[C@H](Cc3ccc(OCC(=O)O)cc3)NC(=O)CSC[C@@H](C(=O)NC(CCN)C(=O)NCCCCCCCCCCCC(=O)O)NC(=O)[C@H](C(C)O)NC(=O)[C@H](C(C)C)NC(=O)[C@H](CC3CCCCC3)NC(=O)[C@H](Cc3cnc[nH]3)NC(=O)[C@@H](CC(C)C)NC(=O)[C@H](CCCN)NC(=O)[C@H](CCCNC(N)=O)NC(=O)[C@H](Cc3ccc(-c4ccccc4)cc3)NC(=O)[C@H](C(C)C)NC2=O)c1 (stereo partly drawn) [Compound 3502] ({CH2CO}-Y(Carboxymethyl)Y(Carboxymethyl)D[Phe(3-Me)]V[Bip][Cit][Orn][dL]H[Cha]V[Thr(3ξ)]C[ξDab][12Ado]-OH; thioether N-14)	7.20
Cc1cccc(C[C@@H]2NC(=O)[C@H](CC(=O)O)NC(=O)[C@H](Cc3ccc(OCC(=O)O)cc3)NC(=O)[C@H](C(C)O)NC(=O)CSC[C@@H](C(=O)NC(CCN)C(=O)NCCCCCCCCCCC(=O)O)NC(=O)[C@H](C(C)O)NC(=O)[C@H](C(C)C)NC(=O)[C@H](CC3CCCCC3)NC(=O)[C@H](Cc3cnc[nH]3)NC(=O)[C@@H](CC(C)C)NC(=O)[C@H](CCCN)NC(=O)[C@H](CCCNC(N)=O)NC(=O)[C@H](Cc3ccc(-c4ccccc4)cc3)NC(=O)[C@H](C(C)C)NC2=O)c1 (stereo partly drawn) [Compound 3503] ({CH2CO}-[Thr(3ξ)]Y(Carboxymethyl)D[Phe(3-Me)]V[Bip][Cit][Orn][dL]H[Cha]V[Thr(3ξ)]C[ξDab][Aun]-OH; thioether N-14)	7.42
Cc1cccc(C[C@@H]2NC(=O)[C@H](CC(=O)O)NC(=O)[C@H](Cc3ccc(OCC(=O)O)cc3)NC(=O)[C@H](C(C)O)NC(=O)CSC[C@@H](C(=O)NC(CCN)C(=O)NCCCCCCCCCCCC(=O)O)NC(=O)[C@H](C(C)O)NC(=O)[C@H](C(C)C)NC(=O)[C@H](CC3CCCCC3)NC(=O)[C@H](CCN)NC(=O)[C@@H](CC(C)C)NC(=O)[C@H](CCCN)NC(=O)[C@H](CCCNC(N)=O)NC(=O)[C@H](Cc3ccc(-c4ccccc4)cc3)NC(=O)[C@H](C(C)C)NC2=O)c1 (stereo partly drawn) [Compound 3504] ({CH2CO}-[Thr(3ξ)]Y(Carboxymethyl)D[Phe(3-Me)]V[Bip][Cit][Orn][dL][Dab][Cha]V[Thr(3ξ)]C[ξDab][12Ado]-OH; thioether N-14)	7.58
CC(=O)NCCCC[C@@H]1NC(=O)[C@H](Cc2ccc(-c3ccccc3)cc2)NC(=O)[C@H](Cc2ccc(O)cc2)NC(=O)[C@H](Cc2cccc(C)c2)NC(=O)[C@H](CC(=O)O)NC(=O)[C@H](Cc2ccc(OCC(=O)O)cc2)NC(=O)[C@H](CCCCNC(=N)N)NC(=O)CSC[C@@H](C(=O)N[C@@H](CCN)C(=O)NCCCCCCCCCCC(=O)O)NC(=O)[C@H](C(C)O)NC(=O)[C@H](C(C)C)NC(=O)[C@H](CC2CCCCC2)NC(=O)[C@H](CCN)NC(=O)[C@@H](CC(C)C)NC(=O)[C@H](CCCN)NC1=O (stereo partly drawn) [Compound 3505] ({CH2CO}-[hArg]Y(Carboxymethyl)D[Phe(3-Me)]Y[Bip]K(Ac)[Orn][dL][Dab][Cha]V[Thr(3ξ)]C[Dab][Aun]-OH; thioether N-14)	7.78
Cc1cccc(C[C@@H]2NC(=O)[C@H](CC(=O)O)NC(=O)[C@H](Cc3ccc(OCC(=O)O)cc3)NC(=O)[C@H](CCCNC(=N)N)NC(=O)CSC[C@@H](C(=O)N[C@@H](CCN)C(=O)NCCCCCCCCCCC(=O)O)NC(=O)[C@H](C(C)O)NC(=O)[C@H](CO)NC(=O)[C@H](CC3CCCCC3)NC(=O)[C@H](CCN)NC(=O)[C@@H](CC(C)C)NC(=O)[C@H](CCCN)NC(=O)[C@H](Cc3ccc(OCC(=O)O)cc3)NC(=O)[C@H](Cc3ccc(-c4ccccc4)cc3)NC(=O)[C@H](Cc3ccc(CCC(=O)O)cc3)NC2=O)c1 (stereo partly drawn) [Compound 3506] ({CH2CO}-RY(Carboxymethyl)D[Phe(3-Me)][Phe(4-CH2CH2COOH)][Bip]Y(Carboxymethyl)[Orn][dL][Dab][Cha]S[Thr(3ξ)]C[Dab][Aun]-OH; thioether N-14)	7.82
CC(=O)NCCCC[C@@H]1NC(=O)[C@H](Cc2ccc(-c3ccccc3)cc2)NC(=O)[C@H](Cc2ccc(O)cc2)NC(=O)[C@H](Cc2cccc(C)c2)NC(=O)[C@H](CC(=O)O)NC(=O)[C@H](Cc2ccc(OCC(=O)O)cc2)NC(=O)[C@H](CCCNC(=N)N)NC(=O)CSC[C@@H](C(=O)N[C@@H](CCN)C(=O)NCCCCCCCCCCC(=O)O)NC(=O)[C@H](C(C)O)NC(=O)[C@H](CO)NC(=O)[C@H](CC2CCCCC2)NC(=O)[C@H](CCN)NC(=O)[C@@H](CC(C)C)NC(=O)[C@H](CCCN)NC1=O (stereo partly drawn) [Compound 3507] ({CH2CO}-RY(Carboxymethyl)D[Phe(3-Me)]Y[Bip]K(Ac)[Orn][dL][Dab][Cha]S[Thr(3ξ)]C[Dab][Aun]-OH; thioether N-14)	7.40
CC(=O)NCCCC[C@@H]1NC(=O)[C@H](Cc2ccc(-c3ccccc3)cc2)NC(=O)[C@H](Cc2ccc(O)cc2)NC(=O)[C@H](Cc2cccc(C)c2)NC(=O)[C@H](CC(=O)O)NC(=O)[C@H](Cc2ccc(OCC(=O)O)cc2)NC(=O)[C@H](CCCNC(=N)N)NC(=O)CSC[C@@H](C(=O)N[C@@H](CCN)C(=O)NCCCCCCCCCCC(=O)O)NC(=O)[C@H](C(C)O)NC(=O)[C@H](C(C)C)NC(=O)[C@H](CC2CCCCC2)NC(=O)[C@H](CCN)NC(=O)[C@@H](CC(C)C)NC(=O)[C@H](CCCN)NC1=O (stereo partly drawn) [Compound 3508] ({CH2CO}-RY(Carboxymethyl)D[Phe(3-Me)]Y[Bip]K(Ac)[Orn][dL][Dab][Cha]V[Thr(3ξ)]C[Dab][Aun]-OH; thioether N-14)	7.84
